Results: patent publication US9458463B2, “Method for treatment of diabetes by a small molecule inhibitor for GRK5” (MAX-PLANCK-GESELLSCHAFT ZUR FÖRDERUNG DER WISSENSCHAFTEN …, priority 2010, dated 2016)
pIC50: −log10 of the molar value.

Tests used:
HepG2 cells = assay: Cell viability assay (CellTiter-Glo / automated cell number) in HepG2; type: cell-based; settings: Homo sapiens, read-out: Inhibition of cell viability IC50
Source text: (§1) Luminescent cell viability assay. For the detection of cell viability, the CellTiter-Glo® Luminescent Cell Viability Assay was used. This test is based on a luciferase reaction to measure the amount of ATP in cells. This correlates directly with the number of cells and their viability because cells lose the ability to synthesize ATP directly after e.g. loss of membrane integrity or a cytotoxic event. The protocol was adapted to 24 well plates and to the different culture conditions resulting in a standardized protocol which is described below. Cell lysis, inhibition of endogenous ATPases and detection of ATP was performed by adding the CellTiter-Glo® Reagent to the culture wells. Per well, 100 μl reagent were mixed with the same volume of proper Medium. Lysing of the cells took place by 10 min incubation at RT and moderate shaking. Three times 50 μl cell lysate was transferred into a white 96 well plate to eliminate stray light, and the bioluminescence was measured.
(§2) In a 96 well dish 10000 cells per well (100 μl) were seed and treated for 72 h. At the end of the treatment, cells were fixed with 4% paraformaldehyde in PBS for 15 minutes, permeabilized with 0.1% triton-X 100 in PBS for 15 minutes and stained with Hoechst 33342 (20 μg/ml in PBS; dilute from 20 mg/ml stock) directly to cells in 100 μl medium in PBS for 30 minutes at 37° C. Stained cells were imaged with a Cellomics ArrayScan VT I automated microscope. Images were analyzed with vHCS Scan Target Activation software v5.1.2 to identify apoptotic cells. Six fields per well of a 96 well plate we re-imaged at 10× magnification. First, cells were identified by their nuclei staining in channel 1 of Cellomics and their amount. Staining intensity was plotted and compared between NT controls and compound treated cells. Finally, data was obtained using vHCS View software v 5.1.2 and the numbers of cells present in the 96 well were identified as “Valid Object Count” whereas the percentage of infection was determined as “% selected”. IC50 values have been calculated accordingly.

[1] = tested on: beta-TC6 insulinoma cells; assay: Insulin release by beta-TC6 cells, rat/mouse insulin ELISA, high glucose; type: cell-based; settings: for activation at 5 µM: Mus musculus, group II, 2 h, high glucose (4.5 g/L), % increase in regard to DMSO control (set at 0%); for activation at 5 µM / Insulin release by beta-TC6 cells compared with positive control Sunitinib: 5 μM; for Insulin release by beta-TC6 cells compared with positive control Sunitinib: high glucose
Experimental: (§3) Release of insulin was detected using a rat/mouse insulin ELISA.
After incubation, the supernatant of the beta-TC6 insulinoma cells was diluted 1:20. The insulin release was measured with rat/mouse insulin ELISA (Merck Millipore Darmstadt, Cat. # EZRMI-13K) by following the manufacture protocol. The enzyme activity of the horseradish peroxidase of the immobilized biotinylated antibodies was monitored spectrophotometrically by the increased absorbency at 490 nm, and corrected by the absorbency at 610 nm.
as §3
The effect on the insulin release of each kinase depletion was monitored by using a rat/mouse insulin ELISA.
For the validation of the negative modulating kinases SCYL1, GRK5, and ADCK1, the target genes were depleted using four different siRNA-sequences each (FIG. 2A-D). The gene-depletion was measured via mRNA-levels after 72 hours while the insulin release was measured using a rat/mouse insulin ELISA after two hours incubation.

full length GRK5 = target: T1, full length GRK5 (Homo sapiens, UniProt P34947); assay: GRK5 kinase activity assay, ADP Glo Kinase Assay technology (Promega); type: biochemical; settings: group II; ADP Glo Kinase Assay (Table 9-B)
T1 construct: 6/2 fold concentrated full length GRK5 (Millipore, #14-714) in reaction buffer; purchased Millipore 14-714
Experimental: The maximal compound assay concentration was set to 100 μM, representing the compound assay concentration used in the primary screen.
Increasing concentrations of GRK5 are incubated together with 100 μM ATP in the absence and presence of 10 μM casein in a reaction buffer. Within this incubation non-phosphorylated casein is converted into phosphorylated casein and ATP is converted into ADP. Thereafter nonconverted ATP is digested into AMP by addition of the ADP-Glo™ Reagent. Subsequently the ADP that is produced by GRK5 activity is phosphorylated back to ATP by addition of Promega Kinase Detection Reagent. These ATP levels serve as measure for the GRK5 activity and are quantified by a luciferase/luciferin reaction.
For GRK5 kinase activity assay, the following protocol was used:
The reaction buffer used was composed of: 20 mM MES pH 6.0, 1 mM DTT, 10 mM MgCl2, 0.01% Tween20 and the reaction volume was 6 μL.
Firstly 4 μL 6/4 fold concentrated substrate and 6/4 fold concentrated ATP in 1 fold concentrated reaction buffer are added to each well of the assay plate. Subsequently 67 nL […] concentrated test compound in 100% DMSO are added to each well except to C− and C+ wells using pin tool. Then 67 nL 100% DMSO are pipetted to C− (no kinase, no compound) and C+ (no compound) wells using pin-tool and 2 μL reaction buffer are added to C− wells. […] After incubation for 120 min. at room temperature 6 μL ADP-Glo™ Reagent (ADP Glo™ Kinase Assay Kit: Promega, V9101) are added to each well to stop the kinase reaction and deplete the unconsumed ATP. After a second incubation for 40 min. at room temperature 12 μL of Kinase Detection Reagent are added to convert ADP to ATP and start luciferase/luciferin reaction for detection of ATP. […] Finally, after incubation for 40 min at room temperature the luminescence intensity was measured.
The activity of the compounds was classified according to IC50 for binding sites of Grk5 into the following ranges:
8800 Customer compounds were screened for their ability to inhibit the enzymatic activity of GRK5. Screening was performed using the ADP Glo™ Kinase Assay technology (Promega). The small molecular weight compounds were delivered at 10 mM stock concentration and were tested at a final assay concentration of 100 μM.
IC50 values were determined in triplicates at 12 concentrations with a dilution factor of three. Triplicates were measured on three different assay plates. The maximal compound assay concentration was set to 100 μM representing the compound assay concentration used in the primary screen. A larger maximal compound assay concentration could not be achieved since the maximal compound concentration on the compound plates was 10 mM (>1% DMSO concentration in the assay).

beta TC6 cells = assay: Cell viability assay (CellTiter-Glo / automated cell number) in beta TC6; type: cell-based; settings: Mus musculus, read-out: Inhibition of cell viability IC50
Source text: as §1, §2

3T3-L1 cells = assay: Cell viability assay (CellTiter-Glo / automated cell number) in 3T3-L1; type: cell-based; settings: Mus musculus, read-out: Inhibition of cell viability IC50
Source text: as §1, §2

C2C12 cells = assay: Cell viability assay (CellTiter-Glo / automated cell number) in C2C12; type: cell-based; settings: Mus musculus, read-out: Inhibition of cell viability IC50
Source text: as §1, §2

T1 sequence (P34947 whole entry): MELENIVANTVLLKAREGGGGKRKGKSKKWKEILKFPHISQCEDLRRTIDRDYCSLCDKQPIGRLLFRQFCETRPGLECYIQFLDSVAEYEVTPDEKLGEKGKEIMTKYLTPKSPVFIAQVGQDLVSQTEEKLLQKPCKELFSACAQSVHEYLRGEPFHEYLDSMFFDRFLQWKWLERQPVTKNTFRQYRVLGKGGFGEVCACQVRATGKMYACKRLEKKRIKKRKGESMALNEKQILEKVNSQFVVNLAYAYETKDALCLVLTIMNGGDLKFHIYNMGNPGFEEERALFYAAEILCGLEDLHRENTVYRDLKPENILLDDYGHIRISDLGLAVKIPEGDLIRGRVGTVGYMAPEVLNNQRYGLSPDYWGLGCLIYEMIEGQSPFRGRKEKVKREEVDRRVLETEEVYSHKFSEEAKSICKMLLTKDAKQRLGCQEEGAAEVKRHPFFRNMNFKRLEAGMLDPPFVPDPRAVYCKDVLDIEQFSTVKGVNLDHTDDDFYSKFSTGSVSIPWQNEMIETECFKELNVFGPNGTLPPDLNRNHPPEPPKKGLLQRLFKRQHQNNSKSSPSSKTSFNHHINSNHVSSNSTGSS

SMILES	pIC50 (HepG2 cells)	activation at 5 µM ([1]; Beta-TC6, 2 h) [%]	pIC50 (full length GRK5)	pIC50 (beta TC6 cells)	pIC50 (3T3-L1 cells)	pIC50 (C2C12 cells)	activation at 5 µM ([1]; Beta-TC6) [%]	Increase in insulin release ([1]; positive control of the siRNA validation, Sunitinib 5 μM, beta-TC6) [%]	Insulin release by beta-TC6 cells compared with positive control Sunitinib [1]
Cc1ccc([C@@H](C)NC(=O)c2ccc3c(c2)/C(=C/c2[nH]c(C)c(C(=O)N4CCN(C)CC4)c2C)C(=O)N3)cc1 [II.32, (3Z)-3-({3,5-dimethyl-4-[(4-methylpiperazin-1-yl)carbonyl]-1H-pyrrol-2-yl}methylene)-N-[(1R)-1-(4-methylphenyl)ethyl]-2-oxoindoline-5-carboxamide]	5.91	143	5.70 to 6.00	5.80	6.15	5.37	–	–	–
CCN(CC)CCNC(=O)c1c(C)[nH]c(/C=C2\C(=O)Nc3ccc(F)cc32)c1C [Sunitinib, reference compound]	–	–	–	–	–	–	80	76.52±13	–
Cc1cccc(C(C)NC(=O)c2ccc3c(c2)/C(=C/c2[nH]c(C)c(C(=O)N4CCN(C)CC4)c2C)C(=O)N3)c1 (stereo not drawn) [II.51, (3Z)-3-({3,5-dimethyl-4-[(4-methylpiperazin-1-yl)carbonyl]-1H-pyrrol-2-yl}methylene)-N-[1-(3-methylphenyl)ethyl]-2-oxoindoline-5-carboxamide]	5.95	252	5.00 to 5.70	5.71	5.87	5.48	–	–	–
CCC(NC(=O)c1ccc2c(c1)/C(=C/c1[nH]c(C)c(C(=O)NCCN3CCCC3)c1C)C(=O)N2)c1ccc(F)c(F)c1 (stereo not drawn) [II.10, (3Z)-N-[1-(3,4-difluorophenyl)propyl]-3-({3,5-dimethyl-4-[(2-pyrrolidin-1-ylethyl)carbamoyl]-1H-pyrrol-2-yl}methylene)-2-oxoindoline-5-carboxamide]	6.20	164	6.00 to 7.00	6.17	< 5.00	5.49	–	–	–
NC(=O)c1ccc(Nc2cc3[nH]c(-c4cccc(F)c4)cc3cn2)cc1 [compound 6, 4-[[2-(3-fluorophenyl)-1H-pyrrolo[3,2-c]pyridin-6-yl]amino]benzamide]	–	–	–	–	–	–	–	–	level similar to Sunitinib
CC[C@@H](NC(=O)c1ccc2c(c1)/C(=C/c1[nH]c(C)c(CCC(=O)NCCN(CC)CC)c1C)C(=O)N2)c1ccccc1 [II.131, (3Z)-3-{4-[2-(2-diethylamino-ethylcarbamoyl)-ethyl]-3,5-dimethyl-1H-pyrrol-2-ylmethylene}-2-oxo-2,3-dihydro-1H-indole-5-carboxylic acid (1-phenyl-propyl)-amide]	5.83	134	6.00 to 7.00	5.46	< 5.00	< 5.00	–	–	–
CC[C@@H](NC(=O)c1ccc2c(c1)/C(=C/c1[nH]c(C)c(CCC(=O)O)c1C)C(=O)N2)c1ccccc1 [II.130, (3Z)-3-{2,4-dimethyl-5-[2-oxo-5-(1R)-(1-phenyl-propylcarbamoyl)-1,2-dihydro-indol-3-ylidenemethyl]-1H-pyrrol-3-yl}-propionic acid]	5.80	103	6.00 to 7.00	5.07	< 5.00	< 5.00	–	–	–
CCC(NC(=O)c1ccc2c(c1)/C(=C/c1[nH]c(C)c(CCC(=O)O)c1C)C(=O)N2)c1ccc(F)c(F)c1 (stereo not drawn) [II.133, (3Z)-3-(5-{5-[1-(3,4-difluoro-phenyl)-propylcarbamoyl]-2-oxo-1,2-dihydro-indol-3-ylidenemethyl}-2,4-dimethyl-1H-pyrrol-3-yl)-propionic acid]	–	131	6.00 to 7.00	–	–	–	–	–	–
CCC(NC(=O)c1ccc2c(c1)/C(=C/c1[nH]c(C)c(CCC(=O)O)c1C)C(=O)N2)c1ccc(Cl)cc1 (stereo not drawn) [II.132, (3Z)-3-(5-{5-[1-(4-chloro-phenyl)-propylcarbamoyl]-2-oxo-1,2-dihydro-indol-3-ylidenemethyl}-2,4-dimethyl-1H-pyrrol-3-yl)-propionic acid]	–	117	6.00 to 7.00	–	–	–	–	–	–
CCC(NC(=O)c1ccc2c(c1)/C(=C/c1[nH]c(C)c(C(=O)NCCN3CCCC3)c1C)C(=O)N2)c1cccc(Cl)c1 (stereo not drawn) [II.11, (3Z)-N-[1-(3-chlorophenyl)propyl]-3-({3,5-dimethyl-4-[(2-pyrrolidin-1-ylethyl)carbamoyl]-1H-pyrrol-2-yl}methylene)-2-oxoindoline-5-carboxamide]	6.10	96	6.00 to 7.00	6.02	< 5.00	5.47	–	–	–
Cn1c(-c2cccnc2)cc2c(Nc3cccc(C(F)(F)F)c3)nccc21 [compound 243, 1-methyl-2-(3-pyridyl)-N-[3-(trifluoromethyl)phenyl]pyrrolo[3,2-c]pyridin-4-amine]	–	–	–	–	–	–	–	–	better effect on the insulin release by beta-TC6 cells than the positive control Sunitinib
Cc1[nH]c(/C=C2\C(=O)Nc3ccc(C(=O)N[C@H](C)c4ccccc4)cc32)c(C)c1C(=O)N1CCN(C)CC1 [II.15, (3Z)-3-({3,5-dimethyl-4-[(4-methylpiperazin-1-yl)carbonyl]-1H-pyrrol-2-yl}methylene)-2-oxo-N-[(1R)-1-phenylethyl]indoline-5-carboxamide]	6.27	–	5.70 to 6.00	5.77	5.95	5.63	–	–	–
CCC(NC(=O)c1ccc2c(c1)/C(=C/c1[nH]c(C)c(CCC(=O)NCCN(CC)CC)c1C)C(=O)N2)c1cccc(Cl)c1 (stereo not drawn) [II.135, (3Z)-3-{4-[2-(2-diethylamino-ethylcarbamoyl)-ethyl]-3,5-dimethyl-1H-pyrrol-2-ylmethyiene}-2-oxo-2,3-dihydro-1H-indole-5-carboxylic acid [1-(3-chloro-phenyl)-propyl]-amide]	5.73	–	> 7.00	5.81	5.87	< 5.00	–	–	–
